Measured values as given in the supplement of paper PMC11061612.

Legend:
Assay in all cases: Bliss excess, mean over the matrix (fraction); higher = more synergy
[1] = test system: T84 (Colorectal Carcinoma)
Method in brief: (§1)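 Cell lines grown in DMEM/F12 or RPMI with 10% FBS were plated in 1536-well plates and held 24 hours at 37°C, 5% CO2 before 72 hours of exposure to two-drug dose matrices, with DMSO typically at 0.2%. CellTiter-Glo 2.0 luminescence gave viability, which was converted to inhibition. Vehicle wells were set to 0 and blank wells to 1. Combination Emax is the second-highest inhibition in the matrix, and Bliss excess is the observed combination effect minus the expected EA + EB − EA·EB, where EA and EB are the single-agent effects.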

[2] = test system: NCI-H1876 (Small Cell Lung Carcinoma)
Method in brief: as §1

[3] = test system: WM35 (Melanoma)
Method in brief: as §1

[4] = test system: OVCAR-3 (Ovarian Carcinoma)
Method in brief: as §1

[5] = test system: KP-4 (Pancreatic Carcinoma)
Method in brief: as §1

[6] = test system: MDA-MB-415 (Breast Carcinoma)
Method in brief: as §1

[7] = test system: DBTRG-05MG (Glioblastoma)
Method in brief: as §1

[8] = test system: C-33-A (Cervical Carcinoma)
Method in brief: as §1

[9] = test system: SNU-423 (Hepatocellular Carcinoma)
Method in brief: as §1

[10] = test system: HT-1080 (Other Solid Carcinomas)
Method in brief: as §1

[11] = test system: NCI-H1341 (Small Cell Lung Carcinoma)
Method in brief: as §1

[12] = test system: NCI-H3118 (Head and Neck Carcinoma)
Method in brief: as §1

[13] = test system: KALS-1 (Glioblastoma)
Method in brief: as §1

[14] = test system: BHT-101 (Thyroid Gland Carcinoma)
Method in brief: as §1

[15] = test system: IA-LM (Non-Small Cell Lung Carcinoma)
Method in brief: as §1

[16] = test system: MONO-MAC-6 (Acute Myeloid Leukemia)
Method in brief: as §1

[17] = test system: PA-TU-8988T (Pancreatic Carcinoma)
Method in brief: as §1

[18] = test system: SAT (Head and Neck Carcinoma)
Method in brief: as §1

[19] = test system: PL4 (Pancreatic Carcinoma)
Method in brief: as §1

[20] = test system: SK-CO-1 (Colorectal Carcinoma)
Method in brief: as §1

SMILES | Bliss excess [1] | Bliss excess [2] | Bliss excess [3] | Bliss excess [4] | Bliss excess [5] | Bliss excess [6] | Bliss excess [7] | Bliss excess [8] | Bliss excess [9] | Bliss excess [10] | Bliss excess [11] | Bliss excess [12] | Bliss excess [13] | Bliss excess [14] | Bliss excess [15] | Bliss excess [16] | Bliss excess [17] | Bliss excess [18] | Bliss excess [19] | Bliss excess [20]
COc1nnc2ccc(N3CCC(c4ccc(OCCN5CCN(C)C(=O)[C@H]5C)cc4)CC3)nn12 [AZD5153] + Cn1cnc2c(F)c(Nc3ccc(Br)cc3Cl)c(C(=O)NOCCO)cc21 [Selumetinib] (first compound max 1 µM, 7x7, partner max 10 µM) | -0.0588 | -0.0499 | 0.0702 | -0.0489 | 0.0157 | 0.0512 | -0.014 | 0.0725 | 0.0059 | 0.0587 | -0.0282 | -0.0164 | -0.0421 | -0.0593 | 0.0168 | -0.008 | 0.0423 | 0.002 | -0.0089 | -0.0134
Cc1c2c(nn1C)CSCc1cc(n(C)n1)CSc1cc(c3ccccc3c1)OCCCc1c(C(=O)O)n(C)c3c-2c(Cl)ccc13 [AZD5991] + C1CN(CCC1(C(=O)N[C@@H](CCO)C2=CC=C(C=C2)Cl)N)C3=NC=NC4=C3C=CN4 [Capivasertib] (first compound max 1 µM, 7x7, partner max 3 µM) | -0.0185 | 0.0708 | -0.0183 | 0.0217 | -0.005 | 0.0144 | -0.0215 | 0.0063 | -0.0822 | -0.0594 | 0.0609 | 0.0263 | 0.0491 | 0.0332 | -0.021 | 0.0378 | -0.01 | -0.0072 | 0.0199 | -0.0119
Cc1c2c(nn1C)CSCc1cc(n(C)n1)CSc1cc(c3ccccc3c1)OCCCc1c(C(=O)O)n(C)c3c-2c(Cl)ccc13 [AZD5991] + C=CCn1c(=O)c2cnc(Nc3ccc(N4CCN(C)CC4)cc3)nc2n1-c1cccc(C(C)(C)O)n1 [AZD1775] (first compound max 1 µM, partner max 1 µM) | -0.0287 | -0.0292 | 0.027 | 0.031 | -0.0245 | 0.0011 | 0.005 | -0.0556 | -0.0976 | 0.0345 | 0.0185 | -0.0361 | -0.0169 | 0.0811 | -0.0011 | -0.0256 | -0.0321 | 0.0173 | -0.0928 | -0.0425
Cc1c2c(nn1C)CSCc1cc(n(C)n1)CSc1cc(c3ccccc3c1)OCCCc1c(C(=O)O)n(C)c3c-2c(Cl)ccc13 [AZD5991] + CC1(C)CCC(CN2CCN(c3ccc(C(=O)NS(=O)(=O)c4ccc(NCC5CCOCC5)c([N+](=O)[O-])c4)c(Oc4cnc5[nH]ccc5c4)c3)CC2)=C(c2ccc(Cl)cc2)C1 [Venetoclax] (first compound max 1 µM, 7x7, partner max 1 µM) | -0.0369 | 0.12 | 0.0181 | -0.0103 | -0.0563 | 0.0637 | -0.0233 | -0.006 | -0.0736 | -0.0353 | 0.132 | -0.0163 | -0.0206 | 0.0146 | -0.007 | 0.136 | -0.0031 | 0.0101 | -0.0611 | -0.0378
Cc1c2c(nn1C)CSCc1cc(n(C)n1)CSc1cc(c3ccccc3c1)OCCCc1c(C(=O)O)n(C)c3c-2c(Cl)ccc13 [AZD5991] + CCN(CCO)CCCOc1ccc2c(Nc3cc(CC(=O)Nc4cccc(F)c4)[nH]n3)ncnc2c1 [AZD2811] (first compound max 1 µM, 7x7, partner max 1 µM) | 0.0441 | 0.058 | 0.0333 | 0.0647 | 0.0247 | -0.108 | 0.019 | -0.028 | -0.0322 | 0.0096 | 0.0493 | 0.0796 | -0.0294 | -0.0507 | 0.0059 | 0.0258 | 0.0689 | 0.101 | 0.0467 | -0.0337
Cc1c2c(nn1C)CSCc1cc(n(C)n1)CSc1cc(c3ccccc3c1)OCCCc1c(C(=O)O)n(C)c3c-2c(Cl)ccc13 [AZD5991] + CN(C)CCCOc1ccc(-c2ccc3ncc4c(c3c2)n(C2CCOCC2)c(=O)n4C)cn1 [AZD0156] (first compound max 1 µM, 7x7, partner max 1 µM) | -0.0112 | 0.0541 | 0.0155 | 0.0405 | 0.0187 | -0.0183 | 0.0252 | -0.0089 | -0.0259 | -0.0148 | 0.0072 | 0.0092 | 0.0151 | 0.0638 | -0.0333 | -0.0433 | 0.0146 | -0.0186 | 0.056 | -0.0182
Cc1c2c(nn1C)CSCc1cc(n(C)n1)CSc1cc(c3ccccc3c1)OCCCc1c(C(=O)O)n(C)c3c-2c(Cl)ccc13 [AZD5991] + C[C@@H]1COCCN1C2=NC(=NC(=C2)C3(CC3)[S@](=N)(=O)C)C4=C5C=CNC5=NC=C4 [AZD6738] (first compound max 1 µM, 7x7, partner max 10 µM) | -0.0127 | 0.0961 | 0.0604 | 0.0623 | 0.0389 | 0.0328 | 0.0578 | -0.0501 | 0.0026 | 0.0041 | 0.0751 | 0.0942 | 0.0165 | 0.0666 | 0.0255 | -0.02 | 0.0151 | 0.0466 | 0.0606 | -0.0164
